Results taken from patent US20130071357A1, “IDENTIFICATION, PROLIFERATION IN SITU, HARVESTING, SEPARATION, AND TRANSPLANTATION OF ADULT-DERIVED REGENERATIVE PLURIPOTENT TRANSITIONAL BLASTOMERE-LIKE STEM CELLS AND METHODS OF TREATMENT THEREOF” (HEYGEN, LLC, priority 2011, published 2013).
Values after ≈ are worked out from the molar mass of the structure shown.

Assays:
[1] = solubility of dexamethasone; format: physicochemical
Method: Dexamethasone solution, pH 7.4: This is typically made up in absolute ethanol (EtOH) because it is not soluble in water or media. Weigh out 0.039 gm of Dexamethasone (Dex, catalog #D-1756, Sigma) and add to 10 ml of absolute EtOH. This will make a 1×10^−2 M stock solution. Store this solution at −20° C. This is the most concentrated solution of Dex that can be made with complete solubility. Add 1 ml of the stock Dex solution made above to 9-ml Opti-MEM I medium with Glutamax. Aliquot 9 ml of this solution as 500 μl quantities in 2 ml cryovials and store at −20° C. Label these tubes as […]. Take the remaining 1 ml of 10^−6M Dex and add to 9 ml of Opti-MEM I medium with Glutamax. Aliquot 9 mls and reserve 1 ml as before. Label these tubes as 1×10^−7M Dex. Take the remaining 1 ml of 10^−7M Dex and add to 9 ml of Opti-MEM I medium with Glutamax. Aliquot 9 mls and reserve 1 ml as before. Label these tubes as 1×10^−8M Dex. Take the remaining 1 ml of 10^−8M Dex and add to 9 ml of Opti-MEM I medium with Glutamax. Aliquot 9 mls and reserve 1 ml as before. Label these tubes as 1×10^−9M Dex. Take the remaining 1 ml of 10^−9M Dex and add to 9 ml of Opti-MEM I medium with Glutamax. Aliquot all 10 mls. Label these tubes as 1×10^−10M Dex. These aliquots will bring 500 mls of media to the concentration of Dex labeled on the tube. Store the cryovials at −20° C.

[2] = tested on: adult-derived regenerative pluripotent transitional blastomere-like stem cells; assay: differentiation of Tr-BLSCs after exposure to dexamethasone; format: cell-based; conditions: extended exposure to a range of dexamethasone concentrations
From the text: After extended exposure to a range of dexamethasone concentrations, adult-derived regenerative pluripotent transitional blastomere-like stem cells differentiated into more than 50 discrete cell types.

[3] = tested on: adult totipotent blastomeric-like stem cells; assay: induction of blastomeric-like stem cells in culture; format: cell-based, rat; conditions: for response to progression agents: lineage-uncommitted BLSCs
From the text: 1961; Rohme 1981; Young and Black, 2005a].
FIG. 7. Blastomeric-like stem cells (BLSCs) harvested from male Sprague-Dawley out bred rat 0001 and propagated from a single cell derived by serial dilution clonogenic analysis, then genomically labeled with LacZ to synthesize the beta-galactosidase gene product. Clone designated as Scl-44beta. […] B-L is phase contrast microscopy to show unstained cells in field of view. […] Original magnification 200×.
FIG. 8. Blastomeric-like stem cells (BLSCs) harvested from male Sprague-Dawley out bred rat 0001 and propagated from a single cell derived by serial dilution clonogenic analysis, then genomically labeled with LacZ to synthesize the beta-galactosidase gene product. Clone designated as Scl-44beta.

[4] = tested on: adult pluripotent epiblast-like stem cells; assay: induction of epiblast-like stem cells in culture; format: cell-based, rat; conditions: for response to progression agents: lineage-uncommitted ELSCs

Row | Molecule | response to progression agents [3] | response to progression agents [4] | also measured
1 | C[C@@H]1C[C@H]2[C@@H]3CCC4=CC(=O)C=C[C@]4(C)[C@@]3(F)[C@@H](O)C[C@]2(C)[C@@]1(O)C(=O)CO [dexamethasone, Dexamethasone] |  |  | solubility in water or media [1]: not soluble; solubility ([1]; absolute ethanol, organic solvent or mixture, thermodynamic from solid, absolute EtOH, read-out: most concentrated solution with complete solubility): 10 mM (≈ 3920 µg/mL); discrete cell types formed [2]: more than 50 discrete cell types
2 | IGF-I: progression agent | unresponsive | unresponsive | 
3 | IGF-II: progression agent | unresponsive | unresponsive | 
4 | hepatocyte growth factor: lineage-induction agent |  |  | response to lineage-induction agent ([3]; BLSCs): forming cells belonging to the endodermal lineage; response to lineage-induction agent ([4]; ELSCs): forming cells belonging to the endodermal lineage
5 | insulin: progression agent | unresponsive | unresponsive | induction in the presence of insulin ([3]; clone Scl-44beta, insulin at 2 micrograms per ml, absence of inhibitors): no induction occurs
